Measured values reported in ChEMBL document CHEMBL1909046, “DrugMatrix in vitro pharmacology data”.

Columns and labels:
[1] = molecular target: Beta-3 adrenergic receptor (Homo sapiens, UniProt P13945); assay: DRUGMATRIX: Adrenergic beta3 radioligand binding (ligand: [125I] Cyanopindolol); assay type: cell membranes, HEK293, Membrane; conditions: hek293; Not Active = under 50% inhibition at 10 µM
[2] = DRUGMATRIX: ATPase, Na+/K+ enzyme inhibition (substrate: ATP); assay type: tissue-based, Sus scrofa, Heart; conditions: Not Active = under 50% inhibition at 10 µM
[3] = molecular target: C-C chemokine receptor type 5 (Homo sapiens, UniProt P51681); assay type: cell membranes, Membrane; conditions: hek293; note: in other assays of this panel Not Active means under 50% inhibition at 10 µM
D(4) dopamine receptor = molecular target: T1, D(4) dopamine receptor (Homo sapiens, UniProt P21917); assay: DRUGMATRIX: Dopamine D4.2 radioligand binding (ligand: [3H] Spiperone); assay type: cell membranes, CHO-K1, Membrane; conditions: cho-k1; Not Active = under 50% inhibition at 10 µM
T1 sequence (P21917 whole entry): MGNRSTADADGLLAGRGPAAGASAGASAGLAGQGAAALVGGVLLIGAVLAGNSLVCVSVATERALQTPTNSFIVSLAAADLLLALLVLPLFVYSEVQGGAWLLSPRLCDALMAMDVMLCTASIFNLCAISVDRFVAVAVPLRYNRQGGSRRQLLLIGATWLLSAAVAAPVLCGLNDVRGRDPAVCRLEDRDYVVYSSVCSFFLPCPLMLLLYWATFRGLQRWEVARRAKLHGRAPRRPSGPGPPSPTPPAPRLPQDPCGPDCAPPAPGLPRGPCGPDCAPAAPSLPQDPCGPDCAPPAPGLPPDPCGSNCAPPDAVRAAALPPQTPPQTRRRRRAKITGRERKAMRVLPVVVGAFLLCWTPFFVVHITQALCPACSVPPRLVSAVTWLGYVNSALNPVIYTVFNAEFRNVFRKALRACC

[4] = DRUGMATRIX: Glutamate, AMPA radioligand binding (ligand: [3H] AMPA); assay type: cell membranes, Rattus norvegicus, Wistar, Cerebral cortex, Membrane; conditions: Not Active = under 50% inhibition at 10 µM
[5] = DRUGMATRIX: Imidazoline I2, Central radioligand binding (ligand: [3H] Idazoxan); assay type: cell membranes, Rattus norvegicus, Wistar, Cerebral cortex, Membrane; conditions: Not Active = under 50% inhibition at 10 µM
Insulin receptor = Insulin receptor (Rattus norvegicus, UniProt P15127); assay type: cell membranes, Wistar, Liver, Membrane; note: in other assays of this panel Not Active means under 50% inhibition at 10 µM
[6] = molecular target: T2, Angiotensin-converting enzyme (Oryctolagus cuniculus, UniProt P12822); assay: biochemical; assay type: tissue-based, Lung;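 note: enzymatic inhibition of angiotensin-converting enzyme measured with FAPGG as the substrate; in other assays of this panel Not Active means under 50% inhibition at 10 µM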
T2 sequence (P12822 whole entry): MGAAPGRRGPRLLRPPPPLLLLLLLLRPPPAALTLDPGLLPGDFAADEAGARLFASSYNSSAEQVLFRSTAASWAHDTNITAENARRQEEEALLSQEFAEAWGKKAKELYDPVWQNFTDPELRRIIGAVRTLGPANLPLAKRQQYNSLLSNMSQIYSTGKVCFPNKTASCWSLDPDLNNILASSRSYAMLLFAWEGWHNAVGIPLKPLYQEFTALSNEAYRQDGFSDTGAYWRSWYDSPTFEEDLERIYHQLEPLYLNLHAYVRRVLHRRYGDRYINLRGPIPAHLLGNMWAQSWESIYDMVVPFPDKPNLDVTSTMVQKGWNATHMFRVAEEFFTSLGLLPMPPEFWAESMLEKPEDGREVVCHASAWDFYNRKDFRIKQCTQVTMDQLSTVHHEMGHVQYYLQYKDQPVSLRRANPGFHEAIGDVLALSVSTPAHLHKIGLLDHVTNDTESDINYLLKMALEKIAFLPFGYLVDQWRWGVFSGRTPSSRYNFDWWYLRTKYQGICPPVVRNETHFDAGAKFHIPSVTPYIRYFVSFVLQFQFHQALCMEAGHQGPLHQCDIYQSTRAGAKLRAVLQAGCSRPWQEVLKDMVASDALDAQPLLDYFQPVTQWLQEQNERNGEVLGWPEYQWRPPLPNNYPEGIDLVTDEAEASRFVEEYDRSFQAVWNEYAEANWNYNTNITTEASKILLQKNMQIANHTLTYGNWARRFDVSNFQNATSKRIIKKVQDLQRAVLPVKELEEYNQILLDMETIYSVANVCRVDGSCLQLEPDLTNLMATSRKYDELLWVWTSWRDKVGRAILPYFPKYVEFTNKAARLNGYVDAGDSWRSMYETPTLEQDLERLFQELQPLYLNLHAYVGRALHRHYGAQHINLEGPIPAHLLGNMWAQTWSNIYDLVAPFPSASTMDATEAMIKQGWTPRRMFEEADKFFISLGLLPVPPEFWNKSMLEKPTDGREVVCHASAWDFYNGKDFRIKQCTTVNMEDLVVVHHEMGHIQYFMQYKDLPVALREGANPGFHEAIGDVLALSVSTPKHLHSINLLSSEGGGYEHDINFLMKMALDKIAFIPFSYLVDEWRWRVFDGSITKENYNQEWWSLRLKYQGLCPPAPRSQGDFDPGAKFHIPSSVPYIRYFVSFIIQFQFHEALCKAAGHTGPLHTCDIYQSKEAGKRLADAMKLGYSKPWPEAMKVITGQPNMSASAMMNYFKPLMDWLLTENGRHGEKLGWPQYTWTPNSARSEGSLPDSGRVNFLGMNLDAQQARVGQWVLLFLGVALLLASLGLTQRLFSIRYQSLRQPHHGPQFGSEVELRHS

[7] = molecular target: Epidermal growth factor receptor (Homo sapiens, UniProt P00533); assay: DRUGMATRIX: Protein Tyrosine Kinase, EGF Receptor enzyme inhibition (substrate: Poly(Glu:Tyr)); assay type: cell-based, Insect cells; conditions: Not Active = under 50% inhibition at 10 µM
Cytochrome P450 2A6 = molecular target: T3, Cytochrome P450 2A6 (Homo sapiens, UniProt P11509); conditions: bti-tn-5b1-4; note: in other assays of this panel Not Active means under 50% inhibition at 10 µM
T3 sequence (P11509 whole entry): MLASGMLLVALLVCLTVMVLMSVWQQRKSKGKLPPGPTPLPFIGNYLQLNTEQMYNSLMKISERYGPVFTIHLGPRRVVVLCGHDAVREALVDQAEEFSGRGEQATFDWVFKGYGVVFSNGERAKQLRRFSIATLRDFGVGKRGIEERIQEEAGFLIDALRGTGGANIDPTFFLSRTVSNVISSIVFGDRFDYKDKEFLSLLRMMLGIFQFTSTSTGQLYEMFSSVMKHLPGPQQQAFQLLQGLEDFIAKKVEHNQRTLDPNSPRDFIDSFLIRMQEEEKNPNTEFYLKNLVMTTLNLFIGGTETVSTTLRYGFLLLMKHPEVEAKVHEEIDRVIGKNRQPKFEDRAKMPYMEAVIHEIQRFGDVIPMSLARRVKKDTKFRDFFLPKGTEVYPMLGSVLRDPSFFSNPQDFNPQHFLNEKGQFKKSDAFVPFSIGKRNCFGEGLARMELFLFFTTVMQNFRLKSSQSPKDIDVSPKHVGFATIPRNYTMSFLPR

Sequence of Epidermal growth factor receptor (P00533 whole entry): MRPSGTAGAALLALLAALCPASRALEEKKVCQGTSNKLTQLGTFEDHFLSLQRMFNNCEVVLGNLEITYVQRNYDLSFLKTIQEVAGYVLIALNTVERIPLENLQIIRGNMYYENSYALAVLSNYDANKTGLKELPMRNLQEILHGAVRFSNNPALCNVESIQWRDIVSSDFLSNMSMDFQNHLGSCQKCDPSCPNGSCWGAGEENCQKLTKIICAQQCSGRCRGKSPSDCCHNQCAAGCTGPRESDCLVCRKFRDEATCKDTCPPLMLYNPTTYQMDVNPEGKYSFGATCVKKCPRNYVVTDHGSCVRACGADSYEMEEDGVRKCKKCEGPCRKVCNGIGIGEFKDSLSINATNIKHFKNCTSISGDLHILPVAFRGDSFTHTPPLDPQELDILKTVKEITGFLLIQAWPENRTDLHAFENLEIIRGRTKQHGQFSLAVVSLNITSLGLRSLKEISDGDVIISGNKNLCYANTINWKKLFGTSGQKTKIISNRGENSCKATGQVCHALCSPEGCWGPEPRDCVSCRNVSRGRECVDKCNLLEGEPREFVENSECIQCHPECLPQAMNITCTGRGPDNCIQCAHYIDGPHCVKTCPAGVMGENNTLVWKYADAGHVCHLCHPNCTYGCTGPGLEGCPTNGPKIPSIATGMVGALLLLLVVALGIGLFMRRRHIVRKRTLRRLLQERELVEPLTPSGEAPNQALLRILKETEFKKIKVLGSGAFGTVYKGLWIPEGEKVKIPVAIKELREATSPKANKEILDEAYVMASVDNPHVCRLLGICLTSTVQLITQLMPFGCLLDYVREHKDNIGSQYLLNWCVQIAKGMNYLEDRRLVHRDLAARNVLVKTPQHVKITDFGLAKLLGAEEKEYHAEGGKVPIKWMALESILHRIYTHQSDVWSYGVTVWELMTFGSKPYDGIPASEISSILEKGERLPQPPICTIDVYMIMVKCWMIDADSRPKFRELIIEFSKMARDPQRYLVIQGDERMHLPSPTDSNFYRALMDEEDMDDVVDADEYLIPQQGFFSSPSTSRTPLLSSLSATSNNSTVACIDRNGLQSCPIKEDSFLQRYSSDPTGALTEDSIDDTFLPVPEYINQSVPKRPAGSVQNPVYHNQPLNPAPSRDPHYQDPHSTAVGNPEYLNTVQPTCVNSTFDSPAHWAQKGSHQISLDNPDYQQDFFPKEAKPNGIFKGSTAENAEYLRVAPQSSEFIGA
Sequence of C-C chemokine receptor type 5 (P51681 whole entry): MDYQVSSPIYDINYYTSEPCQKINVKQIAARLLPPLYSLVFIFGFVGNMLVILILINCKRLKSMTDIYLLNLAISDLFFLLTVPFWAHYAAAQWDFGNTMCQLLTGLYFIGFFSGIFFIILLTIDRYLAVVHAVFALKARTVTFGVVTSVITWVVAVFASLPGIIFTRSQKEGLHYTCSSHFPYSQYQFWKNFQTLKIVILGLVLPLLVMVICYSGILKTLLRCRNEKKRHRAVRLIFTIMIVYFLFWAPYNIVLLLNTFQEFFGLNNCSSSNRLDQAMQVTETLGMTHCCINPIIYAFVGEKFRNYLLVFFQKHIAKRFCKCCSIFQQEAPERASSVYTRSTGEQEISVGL
Sequence of Insulin receptor (P15127 27-759 limits assumed): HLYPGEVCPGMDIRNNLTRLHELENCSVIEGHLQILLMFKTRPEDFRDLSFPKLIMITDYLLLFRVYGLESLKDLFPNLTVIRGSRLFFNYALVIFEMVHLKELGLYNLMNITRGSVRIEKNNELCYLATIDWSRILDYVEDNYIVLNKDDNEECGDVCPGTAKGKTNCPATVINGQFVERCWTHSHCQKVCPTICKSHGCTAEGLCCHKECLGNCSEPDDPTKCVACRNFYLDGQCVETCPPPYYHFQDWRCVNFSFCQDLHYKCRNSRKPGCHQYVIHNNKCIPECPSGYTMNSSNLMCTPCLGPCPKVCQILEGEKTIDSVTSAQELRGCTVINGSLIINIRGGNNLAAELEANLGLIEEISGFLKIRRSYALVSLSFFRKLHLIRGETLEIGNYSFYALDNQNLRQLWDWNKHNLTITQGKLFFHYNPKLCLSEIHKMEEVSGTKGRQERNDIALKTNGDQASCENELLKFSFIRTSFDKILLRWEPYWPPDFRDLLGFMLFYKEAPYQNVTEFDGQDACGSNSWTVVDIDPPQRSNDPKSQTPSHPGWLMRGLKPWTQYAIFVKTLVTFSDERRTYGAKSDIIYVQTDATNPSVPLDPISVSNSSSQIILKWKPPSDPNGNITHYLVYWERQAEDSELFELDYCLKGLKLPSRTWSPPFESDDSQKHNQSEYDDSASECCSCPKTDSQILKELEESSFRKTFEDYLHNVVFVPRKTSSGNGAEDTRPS
Sequence of Insulin receptor (P15127 764-1383 limits assumed): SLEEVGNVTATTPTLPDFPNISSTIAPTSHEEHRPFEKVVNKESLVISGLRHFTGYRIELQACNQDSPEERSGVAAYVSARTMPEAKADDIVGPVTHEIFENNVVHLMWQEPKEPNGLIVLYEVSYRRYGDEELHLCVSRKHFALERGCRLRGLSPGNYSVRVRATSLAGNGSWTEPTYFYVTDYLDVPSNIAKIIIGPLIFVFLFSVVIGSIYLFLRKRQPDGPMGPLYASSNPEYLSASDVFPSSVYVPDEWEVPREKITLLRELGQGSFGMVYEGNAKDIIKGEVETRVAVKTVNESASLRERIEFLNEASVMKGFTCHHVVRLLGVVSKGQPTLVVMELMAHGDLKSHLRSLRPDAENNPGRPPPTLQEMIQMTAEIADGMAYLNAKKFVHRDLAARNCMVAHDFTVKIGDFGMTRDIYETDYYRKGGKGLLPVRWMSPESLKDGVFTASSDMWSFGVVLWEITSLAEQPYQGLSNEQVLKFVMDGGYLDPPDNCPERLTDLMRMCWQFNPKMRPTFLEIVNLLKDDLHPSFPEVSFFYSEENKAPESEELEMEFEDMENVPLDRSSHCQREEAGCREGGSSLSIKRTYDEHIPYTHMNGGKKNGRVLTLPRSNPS
Sequence of Beta-3 adrenergic receptor (P13945 whole entry): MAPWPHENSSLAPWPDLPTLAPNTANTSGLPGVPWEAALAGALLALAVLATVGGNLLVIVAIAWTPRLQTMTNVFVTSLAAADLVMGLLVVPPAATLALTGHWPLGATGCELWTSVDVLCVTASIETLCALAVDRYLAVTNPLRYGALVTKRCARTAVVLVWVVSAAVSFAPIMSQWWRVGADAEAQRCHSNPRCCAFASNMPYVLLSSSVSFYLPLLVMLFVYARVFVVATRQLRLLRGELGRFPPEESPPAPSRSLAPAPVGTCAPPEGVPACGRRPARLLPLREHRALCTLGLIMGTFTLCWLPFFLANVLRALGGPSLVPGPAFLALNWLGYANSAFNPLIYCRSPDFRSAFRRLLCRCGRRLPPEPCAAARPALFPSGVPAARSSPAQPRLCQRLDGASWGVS

| Compound | IC50 [1] | IC50 [2] | Ki [2] | IC50 [3] | IC50 (D(4) dopamine receptor) | IC50 [4] | Ki [4] | IC50 [5] | Ki [5] | IC50 (Insulin receptor) | IC50 [6] | IC50 ([7]; insect cells) | IC50 (Cytochrome P450 2A6) | Ki (Cytochrome P450 2A6) | IC50 ([6]; read-out: IC50) [nM] | IC50 ([7]; read-out: IC50) [nM] |
| --- | --- | --- | --- | --- | --- | --- | --- | --- | --- | --- | --- | --- | --- | --- | --- | --- |
| CCOC(=O)[C@H](CCc1ccccc1)N[C@@H](C)C(=O)N1[C@H](C(=O)O)C[C@@H]2CCC[C@@H]21 | Not Active | Not Active | Not Active | Not Active | Not Active | Not Active | Not Active | Not Active | Not Active | Not Active | Not Active | Not Active | Not Active | Not Active | – | – |
| CC1(C)[C@H]2CC[C@]1(C)C(=O)C2 [(-)-CAMPHOR] | Not Active | Not Active | Not Active | Not Active | Not Active | Not Active | Not Active | Not Active | Not Active | Not Active | Not Active | Not Active | Not Active | Not Active | – | – |
| CC(C)(C)NCC(O)c1ccc(O)c(CO)c1 (stereo not given) [ALBUTEROL] | Not Active | Not Active | Not Active | Not Active | Not Active | Not Active | Not Active | Not Active | Not Active | Not Active | Not Active | Not Active | Not Active | Not Active | – | – |
| Oc1c(I)cc(I)c2cccnc12 [IODOQUINOL] | Not Active | Not Active | Not Active | Not Active | Not Active | Not Active | Not Active | Not Active | Not Active | Not Active | – | – | Not Active | Not Active | 906 | 1890 |
| NNC(=O)c1ccncc1 [ISONIAZID] | Not Active | Not Active | Not Active | Not Active | Not Active | Not Active | Not Active | Not Active | Not Active | Not Active | Not Active | Not Active | Not Active | Not Active | – | – |
| CC1=C(/C=C/C(C)=C/C=C/C(C)=C\C(=O)O)C(C)(C)CCC1 [ISOTRETINOIN] | Not Active | Not Active | Not Active | Not Active | Not Active | Not Active | Not Active | Not Active | Not Active | Not Active | Not Active | Not Active | Not Active | Not Active | – | – |
| CO[C@@H]1[C@@H](O[C@@H]2O[C@H](C)[C@@H](O[C@H]3C[C@@](C)(O)[C@@H](OC(=O)CC(C)C)[C@H](C)O3)[C@H](N(C)C)[C@H]2O)[C@@H](CC=O)C[C@@H](C)[C@@H](O)/C=C/C=C/C[C@@H](C)OC(=O)C[C@H]1O [KITASAMYCIN] | Not Active | Not Active | Not Active | Not Active | Not Active | Not Active | Not Active | Not Active | Not Active | Not Active | Not Active | Not Active | Not Active | Not Active | – | – |
| CC(CCc1ccccc1)NCC(O)c1ccc(O)c(C(N)=O)c1 (stereo not given) [LABETALOL] | Not Active | Not Active | Not Active | Not Active | Not Active | Not Active | Not Active | Not Active | Not Active | Not Active | Not Active | Not Active | Not Active | Not Active | – | – |
| Nc1nnc(-c2cccc(Cl)c2Cl)c(N)n1 [LAMOTRIGINE] | Not Active | Not Active | Not Active | Not Active | Not Active | Not Active | Not Active | Not Active | Not Active | Not Active | Not Active | Not Active | Not Active | Not Active | – | – |
| CCC[C@@H]1C[C@@H](C(=O)N[C@@H]([C@H]2O[C@H](SC)[C@H](O)[C@@H](O)[C@H]2O)[C@@H](C)O)N(C)C1 [LINCOMYCIN] | Not Active | Not Active | Not Active | Not Active | Not Active | Not Active | Not Active | Not Active | Not Active | Not Active | Not Active | Not Active | Not Active | Not Active | – | – |
